The results in this text go back to US9833433B1, “Compositions, methods of use, and methods of treatment” (priority 2013, dated 2017).

Data set [1] deals with COX-2. Nature of the data set: Hippocampal COX-2 expression in mice (immunoblot). It counts as in vivo.
The subject of a further data set is COX-1. Nature of the data set: Hippocampal COX-1 expression in mice (immunoblot). It counts as in vivo. The note with it: Δ^9-THC 10 mg/kg, detected 4 hrs after injection. On the technique in general: In western blotting, separated proteins are transferred to a membrane and probed.
Another data set concerns PGE2. Put plainly: PGE2 assay in hippocampal tissue (enzyme immunoassay). The format is in vivo, mice. Particulars: 10 mg/kg; detected 4 hrs after injection. The source says: PGE2 in hippocampal tissue was detected using PGE2 enzyme immunoassay kit (Cayman Chemical, Ann Arbor, Mich.) according to the procedure described by the manufacturer (Zhang and Chen, 2008).
Data set [2] has as its system COX-2. Put plainly: COX-2 expression in neuronal and astroglial cell-enriched cultures. The format is cell-based. The note with it: assayed 12 hr after treatment. As to the method:
Relative pure hippocampal neurons (astroglial cells<2%), mixed neurons and astroglial cells (astroglial cells ˜10%), and astroglial cell-enriched (astroglial cells>95%), and NG108-15 cell cultures were made as described previously (Sang et al, 2005; Zhang and Chen, 2008).
Primary hippocampal neurons (astroglial cells<2%), mixed neurons and astroglial cells (astroglial cells ˜10%), astroglial cell-enriched (astroglial cells>95%) and NG108-15 cells were cultured as described previously (Sang et al, 2005; Zhang and Chen, 2008). The extent of neurons and astroglial cells in culture were controlled by different treatments, which was estimated by using immunostaining with NeuN, a neuronal marker, glial fibrillary acidic protein (GFAP), an astrocytic marker, and OX-42, a microglial marker, in conjunction with DAPI staining.

Data set [3] deals with Akt, ERK, p38MAPK and NF-κB. Put plainly: Phosphorylation of Akt, ERK, p38MAPK and NF-κB in hippocampal tissue. It counts as in vivo, mice. Particulars: Δ^9-THC 10 mg/kg.
For data set [4], the system named is hippocampal LTP at CA3-CA1 and perforant path synapses. Nature of the data set: Hippocampal LTP (fEPSP recordings in slices, theta-burst stimulation). The note with it: 10 mg/kg once daily for 7 days; LTP 24 hr after last injection; CA3-CA1 and perforant path. It counts as in vivo, mice. As to the method:
Hippocampal LTP both at CA3-CA1 and perforant path synapses were recorded in acutely hippocampal slices and induced by a theta-burst stimulation (TBS) as described previously (Hoffman et al., 2007).
Hippocampal slices were prepared from mice as described previously (Chen et al., 2002; Chen et al., 2012; Fan et al., 2010). Briefly, after decapitation, brains were rapidly removed and placed in cold oxygenated (95% O2, 5% CO2) artificial cerebrospinal fluid (ACSF) containing: 125.0 NaCl, 2.5 KCl, 1.0 MgCl2, 25.0 NaHCO3, 1.25 NaH2PO4, 2.0 CaCl2, 25.0 glucose, 3 pyruvic acid, and 1 ascorbic acid. Slices were cut at a thickness of 350-400 μm and transferred to a holding chamber in an incubator containing ACSF at 36° C. for 0.5 to 1 hour, and maintained in an incubator containing oxygenated ACSF at room temperature (˜22-24° C.) for >1.5 h before recordings. Slices were then transferred to a recording chamber where they were continuously perfused with 95% O2, 5% CO2-saturated standard ACSF at ˜32-34° C. Individual pyramidal and dentate granule neurons were viewed with an upright microscope (Olympus BX51WI) fitted with a 60× water-immersion objective and differential interference contrast (DIC) optics.
Field EPSP (fEPSP) recordings both at CA3-CA1 and perforant path synapses in response to stimuli at a frequency of 0.05 Hz were made using an Axoclamp-2B patch-clamp amplifier (Molecular Devices, CA) in bridge mode. Recording pipettes were pulled from borosilicate glass with a micropipette puller (Sutter Instrument), filled with artificial ACSF (2-4 MΩ). […]

Another data set relates to hippocampal LTD. Nature of the data set: Hippocampal LTD induced by low-frequency stimulation at CA3-CA1 synapses. It counts as in vivo. Particulars: single injection 10 mg/kg i.p.; LTD recorded 24 hrs later; WT mice P12 to P17. The source says: Field EPSP (fEPSP) recordings both at CA3-CA1 and perforant path synapses in response to stimuli at a frequency of 0.05 Hz were made using an Axoclamp-2B patch-clamp amplifier (Molecular Devices, CA) in bridge mode. Recording pipettes were pulled from borosilicate glass with a micropipette puller (Sutter Instrument), filled with artificial ACSF (2-4 MΩ). Hippocampal LTP at CA3-CA1 and perforant path synapses was induced by a theta-burst stimulation (TBS), consisting of a series of 10 bursts of 5 stimuli at 100 Hz (200 ms interburst interval, which was repeated three time (Fan et al., 2010; Hoffman et al., 2007; Chen et al., 2012). The input-output function was tested before recording of LTP, and the baseline stimulation strength was set to provide fEPSP with an amplitude of ˜30% from the subthreshold maximum derived from the input-output function. Hippocampal LTD was induced by low-frequency stimulation (900 stimuli at 1 Hz for 15 min) at CA3-CA1 synapses.

Data set [5] has as its system dendritic spines of CA1 pyramidal neurons. Put plainly: Two-photon imaging of dendritic spines in CA1 pyramidal neurons. It counts as in vivo, mice. Particulars: repeated Δ^9-THC exposure; Thy1-GFP mice. As to the method:
Morphology of dendritic spines in hippocampal CA1 pyramidal neurons was determined in GFP-expressing transgenic mice using a two-photon laser scanning microscope as described previously (Chen et al., 2012). Shape, size, and density of spines were measured from the three-dimensional reconstructions using NeuronStudio Version 0.9.92.
Morphology of dendritic spines in hippocampal CA1 pyramidal neurons was determined in GFP-expressing transgenic mice treated with vehicle, Δ^9-THC or NS398+Δ^9-THC using a two-photon laser scanning microscope (Chameleon hands-free ultrafast Ti: sapphire laser with an Olympus scan head) with Olympus FLUOVIEW 300 software (Chen et al., 2012). Shape (thin, mushroom, or stubby), size, density, and volume of spines were measured from the three-dimensional reconstructions (Z stacks: 1μ step for the whole cell and 0.1μ step for a segment of dendrites) using AutoQuant X2 or 3D deconvolution plugin of Image J (http://bigwww.epfl.ch/algorithms/deconvolutionlab) and NeuronStudio (for 3D reconstruction of imaged dendritic spines, Version 0.9.92; http://research.mssm.edu/cnic/tools-ns.html, CNIC, Mount Sinai School of Medicine). […] The following parameters were used in analyzing and quantifying spines using NeuronStudio: Voxel size was set as 0.029*0.029*0.3 μm. […]

The next data set concerns synaptophysin (Syn). Nature of the data set: Hippocampal synaptophysin expression (immunoblot). Particulars: Δ^9-THC for 7 days. The format is in vivo, mice.
For a further data set, the system named is CREB. Put plainly: Phosphorylation of hippocampal CREB. The note with it: WT mice; Δ^9-THC for 7 days.

Take `CCCCCc1cc(O)c2c(c1)OC(C)(C)[C@@H]1CCC(C)=C[C@@H]21` [Δ^9-THC, Δ^9-tetrahydrocannabinol]: the “hippocampal COX-2 expression after cannabinoid injection” value in the data set with COX-2 [1] (single i.p. injection, CP55,940 10 mg/kg, detected 4 hrs) is “dose- and time-dependent induction of COX-2 in the brain”. In the data set with COX-2 [1] (Δ^9-THC 10 mg/kg i.p. once daily for 7 consecutive days, analyzed 24 hrs after last injection), the “hippocampal COX-2 expression after repeated injections” value is “steadily elevated”. The “hippocampal COX-1 expression” value in the data set with COX-1 is reported as “unaffected”. In the data set on PGE2, the “hippocampal PGE2 production after cannabinoid injection” value is “elevated production of prostaglandin E2 (PGE2)”. The “COX-2 expression in neuronal and astroglial cell-enriched cultures” value in the data set on COX-2 [2] was “CB1R-dependent increase in COX-2 expression both in neuronal and astroglial cell-enriched cultures”. Moreover, the “phosphorylation of Akt, ERK, p38MAPK and NF-κB in the hippocampus” value in [3] is “confirmed”. Further, the “hippocampal LTP after repeated Δ^9-THC exposure” value in [4] is listed as “decreased hippocampal LTP”. Further, the “hippocampal LTD after single exposure” value in the data set with hippocampal LTD was “impaired”. Besides, the “density of dendritic spines” value in data set [5] is “significantly reduced density of dendritic spines of CA1 pyramidal neurons”. Moreover, the synaptophysin expression entry with synaptophysin (Syn) is on record as “did not alter expression of synaptophysin (Syn)”. The “phosphorylation of hippocampal CREB” value with CREB is “reduced expression of glutamate receptor subunits and phosphorylation of CREB”.
